Results on 35 molecules are retold here after a melting point compilation (Tetko et al.; mined from patent text by program, amines drawn as free bases though some values may be those of a salt).

Each structure is given as a SMILES string.

By melting point is commonly meant the temperature of the solid-liquid transition. For the molecule `CC(c1ccc(-c2ccc(F)cc2)cc1)N1CCN(CCO)CC1` (stereo not given), the melting point fell in the range of 120 to 123 °C.

The molecule `Cc1ccc(C(=O)NC(=O)N2CC2C#N)cc1` (stereo not given) came in with a melting point of 177 to 180 °C.

Turning to `c1cnc2c(c1)-c1nc(NC3CCNCC3)ncc1-c1ccncc1N2`, the melting point lay within 189 to 191 °C.

As for `CCc1cc2c(s1)SCCc1cc(=O)n(-c3ccc(OC)cc3)nc1-2`, the melting point is 141 to 143 °C.

`COC(=O)c1cc(OC)c(CNC(C)=O)c(OC)c1` displayed a melting point of 184 °C.

Molecule `COc1cc(OC)c2c(=O)[nH]c(-c3cc(C)c(OCCCCN4CCCC4)c(C)c3)nc2c1` came in with a melting point of 180 to 181 °C.

As for `C=CCSc1cc(-c2ccc(C(F)(F)F)cc2)ccc1C#N`, the melting point lay within 89 to 90 °C.

As for `CCc1cc(-c2nc(C)c(-c3ccnc(Nc4cccc(CNC(C)=O)c4)n3)s2)ccn1`, the melting point is 180 to 182 °C.

Consider `O=C(c1ccccc1)C1(c2ccccc2)COCO1` (stereo not given), for which the melting point lay in the range of 66 to 66.5 °C.

`Cc1cc(-c2cc(C(F)(F)F)n3ncc(C(=O)Nc4nc(C)c(S(N)(=O)=O)s4)c3n2)ccc1C(F)(F)F` gave a melting point of 309 °C.

Molecule `COc1cc(OC)nc(NC(=O)NS(=O)(=O)c2ccccc2-c2nnn(C)n2)n1` displayed a melting point of 214 to 222 °C.

In turn, `N#Cc1ccc2[nH]cc(C=C[N+](=O)[O-])c2c1` yielded a melting point of 217 to 220 °C.

`CCn1cc(C(=O)O)c(=O)c2ccc(N)cc21` yielded a melting point of 304 to 307 °C.

`Cc1oc(-c2ccco2)nc1/C=C/c1ccc(/C=C/C=C/C=O)cc1` showed a melting point of 179 to 180 °C.

Regarding `Oc1ccc(-c2nsnc2Cl)cc1`, the melting point was 135 to 136 °C.

`O=C(CCC1=C(n2nc(-c3c(-c4ccccc4)nn4ccccc34)ccc2=O)CCCC1)OCc1ccccc1` displayed a melting point of 111 to 113 °C.

For `C#CCSc1nc(Cl)cc(Cl)n1`, the melting point was 67 to 70 °C.

`CCOC(=O)c1c2n(c3cc(N4CCN(C)CC4)c(F)cc3c1=O)CCCC2` came in with a melting point of 163 to 165 °C.

Turning to `CC(=O)N[C@H]1CC[C@H](ON2C(=O)c3ccccc3C2=O)CC1`, the melting point is 210 to 213 °C.

`O=C(O)[C@@H]1Cc2cc(Cl)cc(Cl)c2S[C@H]1C(F)(F)F` (relative stereo) had a melting point of 165 to 170 °C.

For `COCC(=O)c1ccc(Br)nc1`, the melting point was 110 to 112 °C.

Regarding `O=C1NC(=O)c2c1c(-c1c(Cl)cccc1Cl)cc1c2c2cc(O)ccc2n1CCO`, the melting point fell in the range of 254 to 257 °C.

Turning to `Cc1cc(-c2cc(C(F)(F)F)n3ncc(C(=O)Nc4cccc(S(N)(=O)=O)c4)c3n2)ccc1C(F)(F)F`, the melting point worked out at 245 °C.

As to `NS(=O)(=O)c1cccc(-c2cc(-c3nc(-c4ccc(C(F)(F)F)cc4)cc(C(F)F)n3)ccn2)c1`, the melting point was 234 °C.

Molecule `ON=Cc1cn2c(cnc3ccccc32)n1` came in with a melting point of 243 to 245 °C.

Take `CCOC(=O)c1cc(OC)c(OC)c(OC)c1-c1c(C(=O)OCC)cc(OC)c2c1OCO2`: the melting point fell in the range of 95 to 96.5 °C.

Consider `CS(=O)(=O)Nc1cccc(Nc2nc(NCCc3c[nH]cn3)c3nc[nH]c3n2)c1`, for which the melting point lay in the range of 205 to 210 °C.

Molecule `CS(=O)(=O)NCCCn1c(CCCOc2ccccc2)nc2c(N)nc3ccccc3c21` returned a melting point of 176 to 178 °C.

`O=c1nc(N2CCC=C(c3ccccc3)C2)sc2ncccc12` returned a melting point of 167 to 169 °C.

Molecule `CCC(=O)Nc1ccc2c(Nc3cccc(Br)c3)ncnc2c1` gave a melting point of 282 to 283 °C.

Consider `CCOC(=O)Cc1ccc(N(C)c2nc(=O)c3cccnc3s2)cc1`, for which the melting point lay in the range of 156 to 159 °C.

`CC(=O)NCn1cc(-c2nc(Nc3ccccn3)sc2C)cn1` showed a melting point of 175 °C.

`O=C(CC1CCCCC1)NC1CCCCC1` came in with a melting point of 164 to 165 °C.

In turn, `CNC(=O)C1CCN(S(=O)(=O)c2ccc(Cl)c(COc3cccc4c(-n5ccnc5)cc(C)nc34)c2Cl)C1` (stereo not given) came in with a melting point of 108 °C.

`C#CCN1CCCc2cccc(CSc3nc4ccccc4[nH]3)c21` had a melting point of 122 °C.
